Positions of bridges follow the written chain, without caps; N, C: chain ends. Residues, ends and D or L forms follow the SMILES beside them.
Columns and labels:
[1] = tested on: S. hominis agr-I; experiment: S. hominis agr-I P3::sGFP reporter assay (AH5009 + pCM41); format: cell-based, Staphylococcus hominis; settings: for S. hominis agr-I reporter growth (OD600): increasing concentrations of synthetic AIP; for effect on S. hominis agr-I fluorescent signal (in words): increasing doses of synthetic AIP, early signal
[2] = tested on: USA300 MRSA (strain LAC); experiment: Murine dermonecrosis model; format: in vivo, BALB/c mice; settings: 10 or 50 μg synthetic AIP-II in DMSO mixed with 1 × 10^8 CFU MRSA, intradermal; vs vehicle; n = 10 per group; dose dependent
[3] = target: MRSA agr-II (Staphylococcus aureus, UniProt O33587); experiment: MRSA agr-II P3::YFP fluorescent reporter assay; format: cell-based
Sequence of MRSA agr-II (O33587 entry or part of it): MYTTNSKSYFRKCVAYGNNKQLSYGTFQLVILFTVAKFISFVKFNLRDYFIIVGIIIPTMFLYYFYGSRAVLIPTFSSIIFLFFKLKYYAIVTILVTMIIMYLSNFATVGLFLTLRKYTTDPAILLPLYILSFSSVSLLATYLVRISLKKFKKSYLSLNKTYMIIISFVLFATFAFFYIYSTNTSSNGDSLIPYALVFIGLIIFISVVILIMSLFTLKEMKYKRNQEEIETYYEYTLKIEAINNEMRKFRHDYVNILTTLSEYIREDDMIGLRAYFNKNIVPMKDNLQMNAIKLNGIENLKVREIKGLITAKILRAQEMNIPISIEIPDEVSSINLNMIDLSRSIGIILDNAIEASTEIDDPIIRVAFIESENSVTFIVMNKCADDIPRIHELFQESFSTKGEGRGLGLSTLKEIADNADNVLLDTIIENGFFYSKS

[4] = target: MRSA agr-I (Staphylococcus aureus, UniProt O07911); experiment: MRSA agr-I P3::YFP fluorescent reporter assay; format: cell-based
Sequence of MRSA agr-I (O07911 entry or part of it): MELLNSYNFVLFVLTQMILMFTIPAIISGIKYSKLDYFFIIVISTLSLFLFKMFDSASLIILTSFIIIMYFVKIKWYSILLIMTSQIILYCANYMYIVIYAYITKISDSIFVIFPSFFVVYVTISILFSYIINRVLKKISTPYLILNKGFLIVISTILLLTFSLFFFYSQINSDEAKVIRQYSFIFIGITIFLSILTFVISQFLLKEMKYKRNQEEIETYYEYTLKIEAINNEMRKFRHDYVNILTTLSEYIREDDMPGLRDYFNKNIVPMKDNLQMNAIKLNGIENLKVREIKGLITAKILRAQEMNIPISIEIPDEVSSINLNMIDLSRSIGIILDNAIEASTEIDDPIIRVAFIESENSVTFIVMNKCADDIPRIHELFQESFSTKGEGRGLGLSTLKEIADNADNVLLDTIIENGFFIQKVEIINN

[5] = tested on: S. hominis agr-II; experiment: S. hominis agr-II P3::sGFP reporter assay (AH4553 + pCM41); format: cell-based, Staphylococcus hominis; settings: for S. hominis agr-II reporter growth (OD600): increasing concentrations of synthetic AIP; for effect on S. hominis agr-II fluorescent signal (in words): increasing doses of synthetic AIP, early signal
[6] = target: MRSA agr-IV (Staphylococcus aureus, UniProt Q309Z2); experiment: MRSA agr-IV P3::YFP fluorescent reporter assay; format: cell-based; settings: for inhibition of MRSA agr-IV by synthetic AIP (in words): synthetic AIP dose response, 24 h fluorescence
Sequence of MRSA agr-IV (Q309Z2 entry or part of it): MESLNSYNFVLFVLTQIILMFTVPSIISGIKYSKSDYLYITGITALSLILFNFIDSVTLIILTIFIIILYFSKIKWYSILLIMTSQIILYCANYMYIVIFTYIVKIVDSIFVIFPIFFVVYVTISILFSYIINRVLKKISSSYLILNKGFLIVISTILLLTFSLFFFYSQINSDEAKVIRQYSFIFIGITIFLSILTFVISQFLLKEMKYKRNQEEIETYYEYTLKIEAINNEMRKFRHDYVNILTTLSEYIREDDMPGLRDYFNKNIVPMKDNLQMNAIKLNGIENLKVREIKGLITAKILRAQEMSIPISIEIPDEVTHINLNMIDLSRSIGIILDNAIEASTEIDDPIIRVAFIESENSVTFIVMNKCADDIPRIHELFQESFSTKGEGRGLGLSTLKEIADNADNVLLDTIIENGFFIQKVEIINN

[7] = target: MRSA agr-III (Staphylococcus aureus, UniProt O33590); experiment: MRSA agr-III P3::YFP fluorescent reporter assay; format: cell-based
Sequence of MRSA agr-III (O33590 entry or part of it): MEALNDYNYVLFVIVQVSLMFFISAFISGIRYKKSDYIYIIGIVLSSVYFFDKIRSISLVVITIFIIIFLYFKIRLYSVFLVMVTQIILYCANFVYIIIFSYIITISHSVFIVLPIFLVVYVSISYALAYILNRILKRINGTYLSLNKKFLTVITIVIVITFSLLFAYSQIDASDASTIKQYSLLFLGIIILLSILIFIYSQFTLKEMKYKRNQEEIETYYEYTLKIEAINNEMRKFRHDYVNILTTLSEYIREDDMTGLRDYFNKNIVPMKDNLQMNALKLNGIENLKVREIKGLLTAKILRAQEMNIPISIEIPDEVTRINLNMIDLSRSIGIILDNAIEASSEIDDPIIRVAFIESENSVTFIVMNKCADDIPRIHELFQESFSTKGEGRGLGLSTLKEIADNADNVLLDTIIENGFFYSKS

[8] = tested on: MRSA strain LAC; experiment: Murine epicutaneous infection; format: in vivo, C57BL/6J mice
[9] = tested on: S. hominis AH5009 AgrA-regulated genes; experiment: RNA-seq of apicidin-treated S. hominis agr-I; format: cell-based, Staphylococcus hominis
[10] = tested on: S. hominis AH5009 PSM-β1 production; experiment: Mass spectrometric detection of PSM-β1 in conditioned medium; format: cell-based, Staphylococcus hominis; settings: 100 μM apicidin or DMSO, 8 h; LC-MS; triplicate injections of biological triplicates
[11] = tested on: MRSA; settings: mouse model; cited from earlier work
[12] = target: S. epidermidis agr-I (Staphylococcus epidermidis, UniProt O86861); experiment: S. epidermidis agr-I P3::sGFP reporter assay; format: cell-based
Sequence of S. epidermidis agr-I (O86861 entry or part of it): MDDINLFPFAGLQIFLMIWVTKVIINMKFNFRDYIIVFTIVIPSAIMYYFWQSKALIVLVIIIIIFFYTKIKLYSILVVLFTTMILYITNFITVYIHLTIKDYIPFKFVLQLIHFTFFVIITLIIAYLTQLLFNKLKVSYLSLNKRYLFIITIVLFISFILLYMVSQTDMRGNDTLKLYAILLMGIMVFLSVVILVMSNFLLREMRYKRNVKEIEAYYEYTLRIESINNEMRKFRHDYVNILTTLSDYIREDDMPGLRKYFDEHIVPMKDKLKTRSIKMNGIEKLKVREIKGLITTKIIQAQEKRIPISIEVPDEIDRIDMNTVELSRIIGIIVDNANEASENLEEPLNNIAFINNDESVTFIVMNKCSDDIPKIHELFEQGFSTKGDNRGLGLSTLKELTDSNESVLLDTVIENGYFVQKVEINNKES

[13] = cognate AIP, fluorescence at 8 h
[14] = 100 μM apicidin vs DMSO, over 24 h
[15] = 100 μM apicidin vs DMSO, 4-fold cutoff, false discovery rate P value ≤0.05
[16] = RNA-seq, S. hominis AH5009, 100 μM apicidin vs DMSO, 8 h, biological triplicate
[17] = RNA-seq, S. hominis AH5009, 100 μM apicidin vs DMSO, 8 h, outside 4-fold cutoff

C[C@@H]1NC(=O)[C@@H](NC(=O)[C@@H]2CCCN2C(=O)[C@H](CO)NC(=O)[C@H](Cc2ccc(O)cc2)NC(=O)[C@@H](N)CO)CSC(=O)[C@H](Cc2ccccc2)NC(=O)[C@H](Cc2ccc(O)cc2)NC(=O)[C@H]([C@@H](C)O)NC1=O [AIP-II] (H-SYSPCATYF; thioester 5-C; N-terminus assumed)
S. hominis agr-I reporter growth (OD600) [1]: no effect on reporter growth | IC50 ([1]; read-out: IC50, inhibition of S. hominis agr-I signaling, noncognate synthetic AIP dose response, relative fluorescence at 8 h, three independent experiments pooled): 0.009 µM | dermonecrotic lesion size [2]: significantly smaller lesions | IC50 [3]: 2.11 µM | IC50 [4]: 0.015 µM | concentration of synthetic AIP optimal to boost S. hominis agr-II fluorescent signal [5, 13]: 12.5 nM | S. hominis agr-II reporter growth (OD600) [5]: no effect on growth | IC50 [6]: 1.13 µM | inhibition of MRSA agr-IV by synthetic AIP (in words) [6]: poorly inhibited | IC50 [7]: 0.003 µM | barrier function by transepithelial water loss (TEWL) ([8]; 10 or 50 μg synthetic AIP-II with 1 × 10^8 CFU MRSA on gauze, 72 h topical, vs vehicle, n = 10 per group): retained more of their barrier function | total CFU burden in epicutaneous lesions ([8]; 10 or 50 μg synthetic AIP-II, 72 h postinfection): no differences in CFU between groups | gross morphology of the skin ([8]; synthetic AIP-II-treated vs vehicle control mice, 72 hpi): less redness, scaling, and erythema

CC[C@H](C)[C@H](NC(=O)[C@@H](N)[C@@H](C)O)C(=O)N[C@@H](CC(N)=O)C(=O)N[C@H](C(=O)N[C@H]1CSC(=O)[C@H](Cc2ccccc2)NC(=O)[C@H](Cc2ccc(O)cc2)NC(=O)CNC(=O)CNC1=O)[C@@H](C)O [AIP-IV] (H-TINTCGGYF; thioester 5-C; N-terminus assumed)
S. hominis agr-I reporter growth (OD600) [1]: did not impact the growth | effect on S. hominis agr-I fluorescent signal (in words) [1]: slightly boosted early agr-I signaling | IC50 [3]: 0.14 µM | IC50 [4]: 0.128 µM | S. hominis agr-II reporter growth (OD600) [5]: did not impact the growth | effect on S. hominis agr-II fluorescent signal (in words) [5]: negligible effects on agr-II | inhibition of MRSA agr-IV by synthetic AIP (in words) [6]: not inhibited | IC50 [7]: 0.037 µM

CC(C)[C@H](NC(=O)[C@@H](NC(=O)[C@H](CCC(N)=O)NC(=O)[C@@H](N)CO)[C@@H](C)O)C(=O)N[C@H]1CSC(=O)[C@H](Cc2ccccc2)NC(=O)[C@H](Cc2ccc(O)cc2)NC(=O)CNC(=O)[C@H](CO)NC1=O [AIP-V] (H-SQTVCSGYF; thioester 5-C; N-terminus assumed)
S. hominis agr-I reporter growth (OD600) [1]: did not impact the growth | effect on S. hominis agr-I fluorescent signal (in words) [1]: weak to negligible effects on agr-I | IC50 [3]: 0.059 µM | IC50 [4]: 0.043 µM | S. hominis agr-II reporter growth (OD600) [5]: did not impact the growth | effect on S. hominis agr-II fluorescent signal (in words) [5]: modestly inhibited agr-II | IC50 [6]: 3.81 µM | inhibition of MRSA agr-IV by synthetic AIP (in words) [6]: poorly inhibited | IC50 [7]: 0.004 µM

CCC(=O)CCCCC[C@@H]1NC(=O)[C@H]2CCCCN2C(=O)[C@H]([C@@H](C)CC)NC(=O)[C@H](Cc2cn(OC)c3ccccc23)NC1=O [apicidin]
S. hominis agr-I P3::sGFP growth (OD600) [1, 14]: no effect on growth | S. hominis agr-I signaling (P3::sGFP fluorescence) [1, 14]: inhibited S. hominis agr-I signaling | number of genes downregulated [9, 15]: 40 genes | number of genes significantly upregulated [9, 15]: 7 genes | Fold change, MOV58_00040 serine--tRNA ligase [9, 16]: -5.87 fold | Fold change, MOV58_00405 arsenate reductase [9, 16]: -5.32 fold | Fold change, MOV58_00410 anion permease [9, 16]: -4.39 fold | Fold change, MOV58_00550 (S)-acetoin forming diacetyl reductase [9, 16]: -7.89 fold | Fold change, MOV58_01010 acetoin reductase/dehydrogenase [9, 16]: -5.45 fold | Fold change, MOV58_01015 yxel choloylglycine hydrolase family protein [9, 16]: -4.94 fold | Fold change, MOV58_01105 excinuclease ABC subunit UvrA [9, 16]: 8.12 fold | Fold change, MOV58_01110 arylamine N-acetyltransferase [9, 16]: 9.09 fold | Fold change, MOV58_01115 ABC2 transporter permease [9, 16]: 9.05 fold | Fold change, MOV58_01120 ABC transporter ATP binding protein btuD [9, 16]: 10.45 fold | Fold change, MOV58_01125 DUF3169 family protein [9, 16]: 19.01 fold | Fold change, MOV58_01130 helix turn helix transcriptional regulator [9, 16]: 18.5 fold | Fold change, MOV58_02040 aldehyde dehydrogenase family protein [9, 16]: -4.94 fold | Fold change, MOV58_05440 hypothetical protein [9, 16]: -5.09 fold | Fold change, MOV58_05705 hypothetical protein [9, 16]: -4.08 fold | Fold change, MOV58_05710 hypothetical protein [9, 16]: -6.86 fold | Fold change, MOV58_05715 fructose-bisphosphatase class III [9, 16]: -6.94 fold | Fold change, MOV58_05720 hypothetical protein [9, 16]: -5.64 fold | Fold change, MOV58_05820 hypothetical protein [9, 16]: -9.59 fold | Fold change, MOV58_06035 universal stress protein [9, 16]: -4.69 fold | Fold change, MOV58_06695 RNA polymerase sigma factor RpoD [9, 16]: -10.14 fold | Fold change, MOV58_07655 hypothetical protein [9, 16]: 4.07 fold | Fold change, MOV58_07775 hypothetical protein [9, 16]: -4.58 fold | Fold change, MOV58_07810 MerR family transcriptional regulator [9, 16]: -4.32 fold | Fold change, MOV58_08480 beta class phenol soluble modulin [9, 16]: -11.36 fold | Fold change, MOV58_08485 beta class phenol soluble modulin [9, 16]: -11.33 fold | Fold change, MOV58_08490 beta class phenol soluble modulin [9, 16]: -9.37 fold | Fold change, MOV58_08495 beta class phenol soluble modulin [9, 16]: -8.82 fold | Fold change, MOV58_09035 hypothetical protein [9, 16]: -4.5 fold | Fold change, MOV58_09040 IDEAL domain containing protein [9, 16]: -6.02 fold | Fold change, MOV58_09615 Hypothetical protein [9, 16]: -4.82 fold | Fold change, MOV58_09645 hypothetical protein [9, 16]: -5.25 fold | Fold change, MOV58_09650 hypothetical protein [9, 16]: -5.02 fold | Fold change, MOV58_09655 hypothetical protein [9, 16]: -4.73 fold | Fold change, MOV58_09715 phosphoglycerate kinase [9, 16]: -6.94 fold | Fold change, MOV58_09720 type I glyceraldehyde-3-phosphate dehydrogenase [9, 16]: -4.93 fold | Fold change, MOV58_09725 CggR, central glycolytic genes regulator [9, 16]: -7.22 fold | Fold change, MOV58_09730 hypothetical [9, 16]: -5.22 fold | Fold change, MOV58_10080 fructose-specific PTS transporter subunit EIIC [9, 16]: -4.31 fold | Fold change, MOV58_10085 1-phosphofruktokinase [9, 16]: -22.43 fold | Fold change, MOV58_10090 DeoR/GlpR family DNA-binding transcription regulator [9, 16]: -27.93 fold | Fold change, MOV58_10435 alpha/beta hydrolase [9, 16]: -6.85 fold | Fold change, MOV58_10445 Hypothetical protein [9, 16]: -10.93 fold | Fold change, MOV58_10515 flavodoxin family protein [9, 16]: -5.24 fold | Fold change, MOV58_10990 Hypothetical protein [9, 16]: -4.65 fold | Fold change, MOV58_11890 LytTR family DNA binding domain containing protein [9, 16]: -7.12 fold | Fold change, MOV58_11895 DUF3021 domain-containing protein [9, 16]: -5.21 fold | RNAIII expression, down -fold [9, 17]: 3.40 fold | agrB expression, down -fold [9, 17]: 2.89 fold | agrD expression, down -fold [9, 17]: 3.08 fold | PSM-β1 presence in S. hominis cultures [10]: present only in S. hominis cultures treated with DMSO, not in those treated with apicidin

CC(C)[C@H](NC(=O)[C@H](CC(N)=O)NC(=O)[C@H](Cc1ccc(O)cc1)NC(=O)[C@@H](N)CO)C(=O)N[C@H]1CSC(=O)[C@H](Cc2ccccc2)NC(=O)[C@H](Cc2ccc(O)cc2)NC(=O)CNC(=O)CNC1=O [AIP-I] (H-SYNVCGGYF; thioester 5-C)
MRSA-associated AD symptoms [11]: effectively mitigates MRSA-associated AD symptoms | concentration of synthetic AIP that significantly boosted S. hominis agr-I fluorescent signal [1, 13]: ≥ 25 nM | S. hominis agr-I reporter growth (OD600) [1]: no effect on growth | S. hominis agr-II reporter growth (OD600) [5]: no impact on reporter growth | IC50 ([5]; read-out: IC50, inhibition of S. hominis agr-II fluorescent signaling, noncognate synthetic AIP dose response, relative fluorescence at 8 h, three independent experiments pooled): 0.007 µM | inhibition of MRSA agr-IV by synthetic AIP (in words) [6]: poorly inhibited | inhibition of S. epidermidis agr-I (in words) ([12]; synthetic AIP dose response): poor inhibitor | S. epidermidis agr-I early fluorescent signal ([12]; synthetic AIP, first 8 h of incubation): boosted the fluorescent signal
